Measured values from patent US3947578A, “Omega-[4-(3"-indolyl)-piperidino]-alkyl-arylketones as nevroleptics” (Roussel Uclaf, priority 1972, dated 1976).
Where a name gives a salt, the structure may show the parent alone. Read-outs that look alike come from different tables or passages of the source.

Key:
[1] = system: mouse; assay: traction test (neuroleptic activity); type: in vivo; conditions: ip, 25 min, I.P., 25 minutes after intraperitoneal administration, read-out: DE50 Traction Test
Description: a. The traction test which consists of suspending a mouse by his front paws from a metal wire stretched horizontally. […] The test was run 25 minutes after intraperitoneal administration of the test product to determine the DE50 dose at which 50% of the animals effected recovering in less than 5 seconds.

[2] = system: mouse; assay: chimney test (neuroleptic activity); type: in vivo; conditions: ip, 25 min, I.P., 25 minutes after intraperitoneal administration, read-out: DE50 Chimney Test
Description: (§1) b. The chimney test which consists of placing a mouse in the extreme end of a glass tube 30 cm long and with a diameter adapted to the size of the animal. This tube is straightened vertically in a rapid motion and the animal with its head down mounts normally the length of the tube in less than 30 seconds. The test was effected 25 minutes after intraperitoneal administration of the test compounds to determine the DE50 dose which is the dose at which 50% of the animals effected a mounting in less than 30 seconds.

[3] = system: young rat; assay: cataleptic activity test; type: in vivo; conditions: ip, I.P., dose provoking catalepsy in 50% of the animals, read-out: DE50 Test of Cataleptic Activity
Excerpt: c. […] The DE50 dose is that dose provoking catalepsy in 50% of the animals after administration of the product.

[4] = system: dogs; assay: anti-emetic activity test vis-a-vis apomorphine hydrochloride; type: in vivo, dog; conditions: Canis lupus familiaris, ip, read-out: DE50 Test of Anti-emetic Activity
Description: (§2) The neuroleptic activity of the compounds of Examples 1 to 8 were determined in the following 4 tests and the results are reported in Table I:
(§3) d. The anti-emetic activity test which is determined on dogs vis-a-vis a subcutaneous injection of 0.1 mg/kg of apomorphine hydrochloride to determine the DE50 dose which is that dose which reduces 50% of the number of vomitings provoked by the injection of apomorphine hydrochloride.

[5] = acute toxicity (DL50); conditions: mouse, in vivo, ip; I.P.; mice; mortality recorded 48 hours after administration
Description: The different products were tested for the dose which would kill 50% of mice when administered intraperitoneally (DL50).

[6] = neuroleptic activity, overall (4 tests of Table I); type: in vivo; conditions: summary of Table I
Description: as §2
a. The traction test which consists of suspending a mouse by his front paws from a metal wire stretched horizontally. In a time less than 5 seconds, the normal animal effected recovering by managing to bring one of the rear paws to the wire. The test was run 25 minutes after intraperitoneal administration of the test product to determine the DE50 dose at which 50% of the animals effected recovering in less than 5 seconds.
as §1
c. The cataleptic activity test using the technique of Boissier et al [Therapie, Vol. 18 (1963), p. 1257-1277] with a young rat having slightly twisted homolaterally paws and noting the intensity of catalepsy. The DE50 dose is that dose provoking catalepsy in 50% of the animals after administration of the product.
as §3

[7] = I.P., dogs, subcutaneous 0.1 mg/kg apomorphine hydrochloride, 50% reduction of vomitings

Structure (SMILES)	ED50 [1] [mg/kg]	ED50 [2] [mg/kg]	ED50 [3] [mg/kg]	ED50 [4, 7] [mg/kg]	LD50 at 48 h [5] [mg/kg]	neuroleptic activity (in words) [6]	ED50 [4] [mg/kg]
O=C(CCCN1CCC(c2c[nH]c3ccccc23)CC1)c1ccc(F)cc1 [Example 1, p-fluoro-ω-[4'-(3"-indolyl)-piperidino]-butyrophenone hydrochloride]	2.2	1.6	8.5	0.02	100	very interesting neuroleptic activity	–
Cn1cc(C2CCN(CCCC(=O)c3ccc(F)cc3)CC2)c2ccccc21 [Example 2, p-fluoro-ω-[4'-(1"-methyl-3"-indolyl)-piperidino]-butyrophenone hydrochloride]	5.2	4.5	12	–	185	–	0.2
COc1ccc2c(C3CCN(CCCC(=O)c4ccc(F)cc4)CC3)c[nH]c2c1 [Example 3, p-fluoro-ω-[4'-(6"-methoxy-3"-indolyl)-piperidino]-butyrophenone hydrochloride]	1.2	0.9	2	0.01	190	very interesting neuroleptic activity	–
COc1ccc2[nH]cc(C3CCN(CCCC(=O)c4ccc(F)cc4)CC3)c2c1 [Example 4, p-fluoro-ω-[4'-(5"-methoxy-3"-indolyl)-piperidino]-butyrophenone hydrochloride]	1	0.2	6	< 0.3	300	very interesting neuroleptic activity	–
COc1ccc2c(C3CCN(CCCC(=O)c4ccc(F)cc4)CC3)c(C)[nH]c2c1 [Example 5, p-fluoro-ω-[4'-(2"-methyl-6"-methoxy-3"-indolyl)-piperidino]butyrophenone]	3.8	0.3	3.5	0.0045	600	very interesting neuroleptic activity	–
O=C(CCCN1CCC(c2c[nH]c3ccccc23)CC1)c1ccc(Br)cc1 [Example 6, p-bromo-ω-[4'-(3"-indolyl)-piperidino]-butyrophenone hydrochloride]	–	–	–	–	300	–	–
O=C(CCCN1CCC(c2c[nH]c3ccccc23)CC1)c1ccccc1 [Example 7, ω-[4'-(3'-indolyl)-piperidino]-butyrophenone hydrochloride]	7	4	11	0.06	300	–	–
O=C(CCN1CCC(c2c[nH]c3ccccc23)CC1)c1ccc(F)cc1 [Example 8, hydrochloride]	2.5	2.7	–	–	600	–	–
